pEC50, pIC50: −log10 of the molar value.
How the values were obtained:
PD-1/PD-L1 interaction = biological target: T1, PD-1/PD-L1 interaction (Homo sapiens, UniProt Q9NZQ7); assay: PD-1/PD-L1 NFAT reporter co-culture assay; type: cell-based; conditions: Jurkat PD-1 NFAT-luciferase cells co-cultured with aAPC-PD-L1 CHO cells, 6 hrs at 37° C.; read-out: EC50 NFAT Luciferase
T1 construct: expressed in transfected cells; host or cells: CHO cells (aAPC-PD-L1) co-cultured with Jurkat cells overexpressing PD-1 and an NFAT-luciferase reporter
T1 sequence (Q9NZQ7 19-290): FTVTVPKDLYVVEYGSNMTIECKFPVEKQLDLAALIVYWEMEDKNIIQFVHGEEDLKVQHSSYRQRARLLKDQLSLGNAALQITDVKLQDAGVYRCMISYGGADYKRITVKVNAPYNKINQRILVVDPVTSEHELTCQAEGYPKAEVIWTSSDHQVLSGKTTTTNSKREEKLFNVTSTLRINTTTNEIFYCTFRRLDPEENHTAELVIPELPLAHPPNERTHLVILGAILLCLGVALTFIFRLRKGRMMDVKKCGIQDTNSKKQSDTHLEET
Summary of the method: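 Luminescence (ONE-Glo) after 6 h, 37 °C co-culture reports NFAT-luciferase in PD-1 Jurkat cells, which PD-1/PD-L1 engagement suppresses. Partner cells: CHO expressing anti-CD3 and PD-L1. EC50 from four-parameter dose-response fit.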

PD-1/PD-L1 = PD-1/PD-L1 (Homo sapiens, UniProt Q9NZQ7); assay: PD-1/PD-L1 biochemical protein-protein interaction assay (ALPHA); type: binding; conditions: 0.3 nM His tagged PD-L1, 2.5 nM biotinylated Fc-PD-1, 60 minutes at 25° C., read-out: IC50 PD-L1-PD-1 Alpha IC50-mono PD-L1-fcP-D1
Sequence of PD-1/PD-L1 (Q9NZQ7 19-238 limits assumed): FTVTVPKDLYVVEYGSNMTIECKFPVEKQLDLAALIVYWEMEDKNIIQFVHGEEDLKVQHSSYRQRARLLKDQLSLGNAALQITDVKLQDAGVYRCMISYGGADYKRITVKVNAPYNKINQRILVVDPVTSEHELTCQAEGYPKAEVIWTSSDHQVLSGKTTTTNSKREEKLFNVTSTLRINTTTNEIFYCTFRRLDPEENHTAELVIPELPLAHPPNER
Summary of the method: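 Compounds are tested for blocking the PD-1/PD-L1 extracellular-domain interaction using an ALPHA bead assay, in which inhibition lowers the luminescent signal. Reactions run 60 min at 25° C with 0.3 nM His-PD-L1 and 2.5 nM biotinylated Fc-PD-1. IC50 values come from four-parameter fits.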

| Compound | pEC50 (PD-1/PD-L1 interaction) | pIC50 (PD-1/PD-L1) |
| --- | --- | --- |
| COc1nc(O[C@@H]2c3cccc(-c4cccc5c4C[C@H](F)[C@@H]5Oc4nc(OC)c(CNC[C@@H](O)CC(=O)O)cc4Cl)c3C[C@@H]2F)c(Cl)cc1CNC[C@@H](O)CC(=O)O [Example 640, (3S,3′S)-4,4′-((((((1R,1′R,2S,2′S)-2,2′-difluoro-2,2′,3,3′-tetrahydro-1H,1′H-[4,4′-biindene]-1,1′-diyl)bis(oxy))bis(5-chloro-2-methoxypyridine-6,3-diyl))bis(methylene))bis(azanediyl))bis(3-hydroxybutanoic acid)] | ≤ 4.30 | 8.96 |
| CC(CO)(NCc1cc(Cl)c(O[C@H]2CCc3c(-c4cccc5c4CC[C@@H]5Oc4nc(OCc5cncc(S(C)(=O)=O)c5)c(CNC(C)(CO)C(=O)O)cc4Cl)cccc32)nc1OCc1cncc(S(C)(=O)=O)c1)C(=O)O (some centres unmarked) [Example 298] | 7.68 | 10.29 |
| COc1nc(O[C@H]2CCc3c(-c4cccc5c4CC[C@@H]5Oc4nc(OC)c(CNC[C@H](O)CC(=O)O)cc4Br)cccc32)c(Br)cc1CNC[C@H](O)CC(=O)O [Example 3, (3R,3′R)-4,4′-((((((1S,1′S)-2,2′,3,3′-tetrahydro-1H,1′H-[4,4′-biindene]-1,1′-diyl)bis(oxy))bis(5-bromo-2-methoxypyridine-6,3-diyl))bis(methylene))bis(azanediyl))bis(3-hydroxybutanoic acid)] | 7.32 | 9.70 |
| Cc1c(COc2cc(OCc3cncc(C#N)c3)c(CN3CCCCC3)cc2Cl)cccc1-c1cccc(COc2cc(OCc3cncc(C#N)c3)c(CN3CCCCC3)cc2Cl)c1C [Example 15, 5,5′-((((((2,2′-dimethyl-[1,1′-biphenyl]-3,3′-diyl)bis(methylene))bis(oxy))bis(4-chloro-6-(piperidin-1-ylmethyl)-3,1-phenylene))bis(oxy))bis(methylene))dinicotinonitrile] | 5.24 | 5.90 |
| CS(=O)(=O)c1cncc(COc2nc(O[C@H]3CCc4c(-c5cccc6c5CC[C@@H]6Oc5nc(OCc6cncc(S(C)(=O)=O)c6)c(CNC[C@@H](O)CC(=O)O)cc5Cl)cccc43)c(Cl)cc2CNC[C@@H](O)CC(=O)O)c1 [Example 694] | 7.02 | 10.29 |
| CCOC(=O)CNCc1cc(Cl)c(O[C@H]2CCc3c(-c4cccc5c4CC[C@@H]5Oc4nc(OC)c(CNCC(=O)OCC)cc4Cl)cccc32)nc1OC [Example 287, Diethyl 2,2′-((((((1S,1′S)-2,2′,3,3′-tetrahydro-1H,1′H-[4,4′-biindene]-1,1′-diyl)bis(oxy))bis(5-chloro-2-methoxypyridine-6,3-diyl))bis(methylene))bis(azanediyl))diacetate] | 6.02 | 6.34 |
| Cc1c(COc2cc(OCc3cncc(C(N)=O)c3)c(CNC[C@@H](O)CC(=O)O)cc2Cl)cccc1-c1cccc(COc2cc(OCc3cncc(C(N)=O)c3)c(CNC[C@@H](O)CC(=O)O)cc2Cl)c1C [Example 222, (3S,3′S)-4,4′-((((((2,2′-dimethyl-[1,1′-biphenyl]-3,3′-diyl)bis(methylene))bis(oxy))bis(2-((5-carbamoylpyridin-3-yl)methoxy)-5-chloro-4,1-phenylene))bis(methylene))bis(azanediyl))bis(3-hydroxybutanoic acid)] | 6.07 | 9.52 |
| COc1cc(C(=O)N2CCc3c(-c4cccc5c4CCN5C(=O)c4ccc(CNC[C@@H](O)CC(=O)O)c(OC)c4)cccc32)ccc1CNC[C@@H](O)CC(=O)O [Example 180, (3S,3′S)-4,4′-(((([4,4′-biindoline]-1,1′-dicarbonyl)bis(2-methoxy-4,1-phenylene))bis(methylene))bis(azanediyl))bis(3-hydroxybutanoic acid)] | 4.61 | 8.34 |
| Cc1c(COc2cc(OCc3nc4ccccc4[nH]3)c(CNC[C@@H](O)CC(=O)O)cc2Cl)cccc1-c1cccc(COc2cc(OCc3nc4ccccc4[nH]3)c(CNC[C@@H](O)CC(=O)O)cc2Cl)c1C [Example 273, (3S,3′S)-4,4′-((((((2,2′-dimethyl-[1,1′-biphenyl]-3,3′-diyl)bis(methylene))bis(oxy))bis(2-((1H-benzo[d]imidazol-2-yl)methoxy)-5-chloro-4,1-phenylene))bis(methylene))bis(azanediyl))bis(3-hydroxybutanoic acid)] | ≤ 4.30 | 6.70 |
| CCNCc1cc(Cl)c(OCc2cccc(-c3cccc(COc4cc(OCc5cncc(C#N)c5)c(CNCC)cc4Cl)c3C)c2C)cc1OCc1cncc(C#N)c1 [Example 12, 5,5′-((((((2,2′-dimethyl-[1,1′-biphenyl]-3,3′-diyl)bis(methylene))bis(oxy))bis(4-chloro-6-((ethylamino)methyl)-3,1-phenylene))bis(oxy))bis(methylene))dinicotinonitrile] | 6.19 | 7.95 |
| Cc1c(COc2cc(OCc3cccc(C#N)n3)c(CNC[C@@H](O)CC(=O)O)cc2Cl)cccc1-c1cccc(COc2cc(OCc3cccc(C#N)n3)c(CNC[C@@H](O)CC(=O)O)cc2Cl)c1C [Example 221, (3S,3′S)-4,4′-((((((2,2′-dimethyl-[1,1′-biphenyl]-3,3′-diyl)bis(methylene))bis(oxy))bis(5-chloro-2-((6-cyanopyridin-2-yl)methoxy)-4,1-phenylene))bis(methylene))bis(azanediyl))bis(3-hydroxybutanoic acid)] | 6.56 | 8.82 |
| COc1nc(OCc2cccc(-c3cccc(COc4nc(OC)c(CNC[C@@H](O)CC(=O)O)cc4C)c3C)c2C)c(C)cc1CNC[C@@H](O)CC(=O)O [Example 119, (3S,3′S)-4,4′-((((((2,2′-dimethyl-[1,1′-biphenyl]-3,3′-diyl)bis(methylene))bis(oxy))bis(2-methoxy-5-methylpyridine-6,3-diyl))bis(methylene))bis(azanediyl))bis(3-hydroxybutanoic acid)] | 6.06 | 9.10 |
| Cc1c(COc2cc(O)c(CNC[C@@H](O)CC(=O)O)cc2Cl)cccc1-c1cccc(COc2cc(OCc3cncc(C#N)c3)c(CNC[C@@H](O)CC(=O)O)cc2Cl)c1C [Example 67, (S)-4-((4-((3′-((4-((((S)-3-carboxy-2-hydroxypropyl)amino)methyl)-2-chloro-5-((5-cyanopyridin-3-yl)methoxy)phenoxy)methyl)-2,2′-dimethyl-[1,1′-biphenyl]-3-yl)methoxy)-5-chloro-2-hydroxybenzyl)amino)-3-hydroxybutanoic acid] | 5.88 | 9.00 |
| O=C(O)C[C@H](O)CNCc1ccc(OC2CCc3c(-c4cccc5c4CCC5Oc4ccc(CNC[C@@H](O)CC(=O)O)cc4)cccc32)cc1 (some centres unmarked) [Example 681] | ≤ 4.30 | 8.05 |
| COc1nc(OCc2cccc(-c3cccc(COc4nc(OC)c(CN5CC[C@H]5C(=O)O)cc4Br)c3C)c2C)c(Br)cc1CN1CC[C@H]1C(=O)O [Example 59, (2S,2′S)-1,1′-(((((2,2′-dimethyl-[1,1′-biphenyl]-3,3′-diyl)bis(methylene))bis(oxy))bis(5-bromo-2-methoxypyridine-6,3-diyl))bis(methylene))bis(azetidine-2-carboxylic acid)] | 5.90 | 10.00 |
| Cc1c(COc2cc(O)c(CNC[C@@H](F)C(C)(C)O)cc2Cl)cccc1-c1cccc(COc2cc(OCc3cncc(C#N)c3)c(CNC[C@@H](F)C(C)(C)O)cc2Cl)c1C [Example 277, 5-((4-chloro-5-((3′-((2-chloro-4-((((R)-2-fluoro-3-hydroxy-3-methylbutyl)amino)methyl)-5-hydroxyphenoxy)methyl)-2,2′-dimethyl-[1,1′-biphenyl]-3-yl)methoxy)-2-((((R)-2-fluoro-3-hydroxy-3-methylbutyl)amino)methyl)phenoxy)methyl)nicotinonitrile] | ≤ 4.30 | 6.90 |
| Cc1c(COc2cc(OCc3cncc(C#N)c3)c(CNCCO)cc2Cl)cccc1-c1cccc(COc2cc(OCC3CC3)c(CNCCO)cc2Cl)c1C [Example 199, 5-((4-Chloro-5-((3′-((2-chloro-5-(cyclopropylmethoxy)-4-(((2-hydroxyethyl)amino)methyl)phenoxy)methyl)-2,2′-dimethyl-[1,1′-biphenyl]-3-yl)methoxy)-2-(((2-hydroxyethyl)amino)methyl)phenoxy)methyl)nicotinonitrile] | 5.67 | 6.73 |
| Cc1c(COc2nc(OCC3CC3)c(CNC[C@@H](O)CC(=O)O)cc2Br)cccc1-c1cccc(COc2nc(OCC3CC3)c(CNC[C@@H](O)CC(=O)O)cc2Br)c1C [Example 141, (3S,3′S)-4,4′-((((((2,2′-dimethyl-[1,1′-biphenyl]-3,3′-diyl)bis(methylene))bis(oxy))bis(5-bromo-2-(cyclopropylmethoxy)pyridine-6,3-diyl))bis(methylene))bis(azanediyl))bis(3-hydroxybutanoic acid)] | ≤ 4.30 | 8.44 |
| COc1cc(OCc2cccc(-c3cccc(COc4cc(OCc5cncc(C#N)c5)c(CNC[C@@H](O)CC(=O)O)cc4Cl)c3C)c2C)c(Cl)cc1CNCC(=O)NS(C)(=O)=O [Example 355, (S)-4-((5-chloro-4-((3′-((2-chloro-5-methoxy-4-(((2-(methylsulfonamido)-2-oxoethyl)amino)methyl)phenoxy)methyl)-2,2′-dimethyl-[1,1′-biphenyl]-3-yl)methoxy)-2-((5-cyanopyridin-3-yl)methoxy)benzyl)amino)-3-hydroxybutanoic acid] | 6.15 | 9.83 |

Reference: US12590062B2, “PD-1/PD-L1 inhibitors” (Gilead Sciences, Inc., priority 2017, dated 2026)
